From patent US11000033B2, “Ketone or oxime compound, and herbicide” (NISSAN CHEMICAL CORPORATION, priority 2014, dated 2021)

Key:
Type in all cases: in vivo
Apera spica-venti [1] = assay: Test Example 5: herbicidal effect by foliage application, plastic box (symbol L); details: 320 g/ha, 3 weeks after application
Method in brief: (§1)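 Leaf-applied emulsion, water-diluted to a preset herbicide dose, on two-week-old seedlings raised in a 25° C. to 30° C. greenhouse; injury rated at 3 weeks using earlier criteria.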

Scirpus juncoides [2] = assay: Test Example 2: herbicidal activity, application during weed generation in submerged conditions (symbol B); details: Table 23; application herbicide amount 320 g/ha; grade 0-5 by criteria of Test Example 1
Method in brief: (§2)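 Visual herbicidal ratings, taken three weeks after dosing, reflect post-emergence water-surface application to seedlings at one to two leaves. Conditions: co-sown weeds in alluvial soil flooded to 4 cm, greenhouse held at 25° C. to 30° C.; compound given as water-diluted emulsion at a fixed herbicide amount.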

Veronica persica = assay: Test Example 5: herbicidal effect by foliage application, plastic box (symbol R); details: 320 g/ha, 3 weeks after application
Method in brief: as §1

rapeseed [3] = assay: Test Example 5: effect on crop by foliage application, plastic box (symbol g); details: 320 g/ha, 3 weeks after application
Method in brief: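 Soil: sterilized diluvial. Container: plastic box, 21 × 13 cm, 7 cm deep. Sowing: spot-like, ~1.5 cm cover. Growth: greenhouse, 25° C. to 30° C.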

Monochoria vaginalis [4] = assay: Test Example 1: herbicidal activity, application before weed generation in submerged conditions (symbol C); details: application herbicide amount 320 g/ha
Method in brief: (§3)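 Application before weed emergence: an aqueous dilution of the emulsion formulation was poured onto the surface of 4 cm-deep floodwater on the day of sowing. Effect was judged after 3 weeks (greenhouse, 25–30 °C).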

Lolium multiflorum Lam. = assay: Test Example 5: herbicidal effect by foliage application, plastic box (symbol K); details: 320 g/ha, 3 weeks after application
Method in brief: as §1

Scirpus juncoides [5] = assay: Test Example 1: herbicidal activity, application before weed generation in submerged conditions (symbol B); details: application herbicide amount 320 g/ha
Method in brief: as §3

[6] = tested on: Echinochloa crus-galli var. crus-galli; assay: Test Example 4: herbicidal effect by soil treatment (symbol H); details: application herbicide amount 320 g/ha
Method in brief: (§4)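 Seeds were sown in sterilized diluvial soil, covered with about 1.5 cm of soil, and the soil surface was sprayed with a water-diluted emulsion of the compound at a predetermined rate. Plants grew in a greenhouse at 25° C. to 30° C.; effects were scored visually 3 weeks after application.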

Apera spica-venti [7] = assay: Test Example 4: herbicidal effect by soil treatment (symbol L); details: application herbicide amount 320 g/ha
Method in brief: as §4

Amaranthus retroflexus = assay: Test Example 5: herbicidal effect by foliage application, plastic box (symbol N); details: 320 g/ha, 3 weeks after application
Method in brief: as §1

Monochoria vaginalis [8] = assay: Test Example 2: herbicidal activity, application during weed generation in submerged conditions (symbol C); details: Table 23; application herbicide amount 320 g/ha; grade 0-5 by criteria of Test Example 1
Method in brief: as §2

rapeseed [9] = assay: Test Example 4: effect on crop by soil treatment (symbol g); details: application herbicide amount 320 g/ha
Method in brief: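 Diluvial soil (sterilized) in boxes; seeds placed spot-wise alongside weed species; ~1.5 cm covering soil. Greenhouse, 25–30° C.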

Digitaria ciliaris = assay: Test Example 4: herbicidal effect by soil treatment (symbol F); details: application herbicide amount 320 g/ha
Method in brief: as §4

Setaria viridis = assay: Test Example 5: herbicidal effect by foliage application, plastic box (symbol G); details: 320 g/ha, 3 weeks after application
Method in brief: as §1

Compound	L: Apera spica-venti, herbicidal effect (criteria of Test Example 1) (Apera spica-venti [1])	Herbicidal effect grade, B: Scirpus juncoides (Scirpus juncoides [2])	R: Veronica persica, herbicidal effect (criteria of Test Example 1) (Veronica persica)	g: rapeseed, effect on crop (criteria of Test Example 1) (rapeseed [3])	Herbicidal effect grade, C: Monochoria vaginalis (Monochoria vaginalis [4])	K: Lolium multiflorum Lam., herbicidal effect (criteria of Test Example 1) (Lolium multiflorum Lam.)	Herbicidal effect grade, B: Scirpus juncoides (Scirpus juncoides [5])	Herbicidal effect grade, H: Echinochloa crus-galli var. crus-galli [6]	Herbicidal effect grade, L: Apera spica-venti (Apera spica-venti [7])	N: Amaranthus retroflexus, herbicidal effect (criteria of Test Example 1) (Amaranthus retroflexus)	Herbicidal effect grade, C: Monochoria vaginalis (Monochoria vaginalis [8])	Effect on crop grade, g: rapeseed (rapeseed [9])	Herbicidal effect grade, F: Digitaria ciliaris (Digitaria ciliaris)	G: Setaria viridis, herbicidal effect (criteria of Test Example 1) (Setaria viridis)
CON=C(C)CC1CC(O)=C(c2c(C)cc(-c3cc(F)c(F)c(F)c3)cc2C)C1=O (stereo not shown) [6-104]	5 (Herbicidal ratio of 90% or more (almost completely withered))	5 (Herbicidal ratio of 90% or more (almost completely withered))	4 (Herbicidal ratio of 70% or higher and lower than 90%)	4 (Herbicidal ratio of 70% or higher and lower than 90%)	5 (Herbicidal ratio of 90% or more (almost completely withered))	5 (Herbicidal ratio of 90% or more (almost completely withered))	5 (Herbicidal ratio of 90% or more (almost completely withered))	5 (Herbicidal ratio of 90% or more (almost completely withered))	5 (Herbicidal ratio of 90% or more (almost completely withered))	5 (Herbicidal ratio of 90% or more (almost completely withered))	5 (Herbicidal ratio of 90% or more (almost completely withered))	4 (Herbicidal ratio of 70% or higher and lower than 90%)	5 (Herbicidal ratio of 90% or more (almost completely withered))	5 (Herbicidal ratio of 90% or more (almost completely withered))
COc1cc(Br)cc(C)c1C1=C(O)CC(CC(C)=O)C1=O (stereo not shown) [7-027, 2-(4-bromo-2-methoxy-6-methylphenyl)-3-hydroxy-5-(2-oxopropyl)cyclopent-2-enone]	5 (Herbicidal ratio of 90% or more (almost completely withered))	0 (Herbicidal ratio of 5% or lower (almost no effect))	0 (Herbicidal ratio of 5% or lower (almost no effect))	2 (Herbicidal ratio of 20% or higher and lower than 40%)	2 (Herbicidal ratio of 20% or higher and lower than 40%)	5 (Herbicidal ratio of 90% or more (almost completely withered))	0 (Herbicidal ratio of 5% or lower (almost no effect))	5 (Herbicidal ratio of 90% or more (almost completely withered))	5 (Herbicidal ratio of 90% or more (almost completely withered))	0 (Herbicidal ratio of 5% or lower (almost no effect))	2 (Herbicidal ratio of 20% or higher and lower than 40%)	0 (Herbicidal ratio of 5% or lower (almost no effect))	5 (Herbicidal ratio of 90% or more (almost completely withered))	5 (Herbicidal ratio of 90% or more (almost completely withered))
CC(=O)CC1CC(O)=C(c2c(C)cc(-c3ccc(C(F)(F)F)cc3)cc2C)C1=O (stereo not shown) [7-005]	4 (Herbicidal ratio of 70% or higher and lower than 90%)	0 (Herbicidal ratio of 5% or lower (almost no effect))	0 (Herbicidal ratio of 5% or lower (almost no effect))	0 (Herbicidal ratio of 5% or lower (almost no effect))	0 (Herbicidal ratio of 5% or lower (almost no effect))	5 (Herbicidal ratio of 90% or more (almost completely withered))	0 (Herbicidal ratio of 5% or lower (almost no effect))	0 (Herbicidal ratio of 5% or lower (almost no effect))	0 (Herbicidal ratio of 5% or lower (almost no effect))	0 (Herbicidal ratio of 5% or lower (almost no effect))	0 (Herbicidal ratio of 5% or lower (almost no effect))	0 (Herbicidal ratio of 5% or lower (almost no effect))	5 (Herbicidal ratio of 90% or more (almost completely withered))	4 (Herbicidal ratio of 70% or higher and lower than 90%)
CON=C(C)CC1CC(O)=C(c2c(C)cc(-c3ccccc3)cc2OC)C1=O (stereo not shown) [6-099]	5 (Herbicidal ratio of 90% or more (almost completely withered))	5 (Herbicidal ratio of 90% or more (almost completely withered))	5 (Herbicidal ratio of 90% or more (almost completely withered))	5 (Herbicidal ratio of 90% or more (almost completely withered))	5 (Herbicidal ratio of 90% or more (almost completely withered))	5 (Herbicidal ratio of 90% or more (almost completely withered))	5 (Herbicidal ratio of 90% or more (almost completely withered))	5 (Herbicidal ratio of 90% or more (almost completely withered))	5 (Herbicidal ratio of 90% or more (almost completely withered))	4 (Herbicidal ratio of 70% or higher and lower than 90%)	5 (Herbicidal ratio of 90% or more (almost completely withered))	5 (Herbicidal ratio of 90% or more (almost completely withered))	5 (Herbicidal ratio of 90% or more (almost completely withered))	5 (Herbicidal ratio of 90% or more (almost completely withered))
CC(=O)CC1CC(O)=C(c2c(C)cc(-c3ccc(Cl)cc3)cc2C)C1=O (stereo not shown) [7-008]	5 (Herbicidal ratio of 90% or more (almost completely withered))	0 (Herbicidal ratio of 5% or lower (almost no effect))	3 (Herbicidal ratio of 40% or higher and lower than 70%)	3 (Herbicidal ratio of 40% or higher and lower than 70%)	0 (Herbicidal ratio of 5% or lower (almost no effect))	5 (Herbicidal ratio of 90% or more (almost completely withered))	2 (Herbicidal ratio of 20% or higher and lower than 40%)	5 (Herbicidal ratio of 90% or more (almost completely withered))	5 (Herbicidal ratio of 90% or more (almost completely withered))	0 (Herbicidal ratio of 5% or lower (almost no effect))	0 (Herbicidal ratio of 5% or lower (almost no effect))	0 (Herbicidal ratio of 5% or lower (almost no effect))	5 (Herbicidal ratio of 90% or more (almost completely withered))	5 (Herbicidal ratio of 90% or more (almost completely withered))
